One assay has as its system MV4-11 cells. The assay is described as follows: Cell proliferation assay (ATPlite). In kind it is cell-based. As to conditions: Homo sapiens, 120 h; MV4-11 cells, five days; read-out: GI MV411 EC50. In short, it runs like this:
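Cells seeded at 1,000/well in Alpha-MEM with 10% FBS, treated with compound over a 10-point range (top 10 μM) or DMSO. Grown five days at 37° C, 5% CO2; viability by ATPlite luminescence.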
On the technique in general: Cellular ATP, detected with luciferase, serves as a proxy for viable cell number.

Assay [1] addresses T1, WDR5 (Homo sapiens, UniProt P61964). Put plainly: Surface Plasmon Resonance (SPR) assay. In kind it is binding. The arrangement: Full length WDR5 with an N-terminal His tag and C-terminal AviTag; His tag (N); made in house; host or cells: E. coli. As to conditions: read-out: SPR Kd. In short, it runs like this: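 Full-length biotinylated WDR5 (N-His, C-AviTag, E. coli) captured (~3000 RU) on streptavidin SA chip; Biacore T200. HBS-EP pH 7.4 plus 5% DMSO running buffer, 40 μl/min.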

The target in assay [2] is T1, WDR5. Put plainly: Fluorescence Polarization (FP) binding assay. In short, it runs like this: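 Displacement of fluorescein-labelled H3 (1-15) (30 nM, with 0.3 μM WDR5) or 9-Ala-FAM (20 nM, with 0.05 μM WDR5) in 80 mM sodium phosphate pH 6.5, 20 mM KCl, 0.008% Triton X-100. FP read at 485/528 nm (H3) or 480/540 nm (9-Ala-FAM); Kdisp from hyperbolic fit, mean of quadruplicates.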
(Fluorescence polarisation rises when a labelled molecule tumbles more slowly, as on binding a larger partner.)

Among the data in patent US20200385371A1 (Propellon Therapeutics Inc., priority 2017, published 2020) are EC50, Kd and IC50 values, retold here.

In the case of `Cc1nc(C(=O)N2CC=C(c3c(F)cc(N4CCN(C)[C@@H](C)C4)c(NC(=O)c4c[nH]c(=O)cc4C(F)F)c3F)CC2)cs1` [Example 159, (S)-4-(difluoromethyl)-N-(6-(3,4-dimethylpiperazin-1-yl)-2,4-difluoro-3-(1-(2-methylthiazole-4-carbonyl)-1,2,3,6-tetrahydropyridin-4-yl)phenyl)-6-oxo-1,6-dihydropyridine-3-carboxamide], the EC50 with MV4-11 cells was 440 nM. In addition, the Kd on WDR5 [1] was found to be 2.2 nM. Moreover, the IC50 at WDR5 [2] was 13.9 nM.
Consider `COc1cc(N2CC=C(c3c(F)cc(N4CCN(C)[C@@H](C)C4)c(NC(=O)c4c[nH]c(=O)cc4C(F)F)c3F)C2)ncn1` [Example 74, (S)-4-(difluoromethyl)-N-(6-(3,4-dimethylpiperazin-1-yl)-2,4-difluoro-3-(1-(6-methoxypyrimidin-4-yl)-2,5-dihydro-1H-pyrrol-3-yl)phenyl)-6-oxo-1,6-dihydropyridine-3-carboxamide], for which the EC50 with MV4-11 cells is 36.7 nM. The Kd at WDR5 [1] is 2.12 nM. In addition, the IC50 at WDR5 [2] was determined as 16.4 nM.
The like results for `C[C@@H]1CN(c2cc(F)c(-c3cnc(N4C[C@H](C)O[C@@H](C)C4)nc3)c(F)c2NC(=O)c2c[nH]c(=O)cc2C(F)F)C[C@H](C)N1C` [Example 120, 4-(Difluoromethyl)-N-(3-(2-((2S,6S)-2,6-dimethylmorpholino)pyrimidin-5-yl)-2,4-difluoro-6-((3S,5R)-3,4,5-trimethylpiperazin-1-yl)phenyl)-6-oxo-1,6-dihydropyridine-3-carboxamide] were, in that order, 2.07 nM, 1.35 nM and 12 nM.
`C[C@@H]1CN(c2ccc(-c3c(F)cc(N4CCN(C)[C@@H](C)C4)c(NC(=O)c4cn(C)c(=O)cc4C(F)F)c3F)cn2)C[C@H](C)O1` [Example 175, 4-(Difluoromethyl)-N-(3-(6-((2S,6R)-2,6-dimethylmorpholino)pyridin-3-yl)-6-((S)-3,4-dimethylpiperazin-1-yl)-2,4-difluorophenyl)-1-methyl-6-oxo-1,6-dihydropyridine-3-carboxamide]: the EC50 in the assay with MV4-11 cells was 255 nM. For the same compound, the Kd on WDR5 [1] is 1.57 nM. Also, the concentration for half-maximal inhibition (IC50) on WDR5 [2] was determined as 24.6 nM.
`C[C@@H]1CN(c2nccc(-c3c(F)cc(N4C[C@@H](C)N(C)[C@@H](C)C4)c(NC(=O)c4c[nH]c(=O)cc4C(F)(F)F)c3F)n2)C[C@H](C)O1` [Example 77, N-(3-(2-((2S,6R)-2,6-dimethylmorpholino)pyrimidin-4-yl)-2,4-difluoro-6-((3S,5R)-3,4,5-trimethylpiperazin-1-yl)phenyl)-6-oxo-4-(trifluoromethyl)-1,6-dihydropyridine-3-carboxamide]: the EC50 in the assay on MV4-11 cells was determined as 108 nM. Besides, the Kd at WDR5 [1] is 1.12 nM. Besides, on WDR5 [2], the IC50 was determined as 10.1 nM.
In the case of `C[C@H]1CN(c2cc(F)c(C3=CCN(C(=O)OC4CC(F)(F)C4)C3)c(F)c2NC(=O)c2c[nH]c(=O)cc2C(F)(F)F)CCN1C` [Example 45, 3,3-Difluorocyclobutyl (S)-3-(4-(3,4-dimethylpiperazin-1-yl)-2,6-difluoro-3-(6-oxo-4-(trifluoromethyl)-1,6-dihydropyridine-3-carboxamido)phenyl)-2,5-dihydro-1H-pyrrole-1-carboxylate], the EC50 in the assay with MV4-11 cells was 76.7 nM. Moreover, at WDR5 [1], the Kd is 1.32 nM. Further, the IC50 on WDR5 [2] was determined as 12.1 nM.
`COc1cnc(N2CCC=C(c3c(F)cc(N4C[C@@H](C)N(C)[C@@H](C)C4)c(NC(=O)c4c[nH]c(=O)cc4C(F)(F)F)c3F)C2)nc1` [Example 138, N-(2,4-difluoro-3-(1-(5-methoxypyrimidin-2-yl)-1,2,5,6-tetrahydropyridin-3-yl)-6-((3S,5R)-3,4,5-trimethylpiperazin-1-yl)phenyl)-6-oxo-4-(trifluoromethyl)-1,6-dihydropyridine-3-carboxamide]: in the assay with MV4-11 cells, the EC50 was 109 nM. On WDR5 [1], the Kd was found to be 1.93 nM. For the same compound, the IC50 at WDR5 [2] was 19.5 nM.
In the same order, the values of `CC(C)[C@@H]1CN(c2ncc(-c3c(F)cc(N4C[C@@H](C)N(C)[C@@H](C)C4)c(NC(=O)c4c[nH]c(=O)cc4C(F)(F)F)c3F)cn2)CCO1` [Example 105, N-(2,4-difluoro-3-(2-((R)-2-isopropylmorpholino)pyrimidin-5-yl)-6-((3S,5R)-3,4,5-trimethylpiperazin-1-yl)phenyl)-6-oxo-4-(trifluoromethyl)-1,6-dihydropyridine-3-carboxamide] are 14.3 nM, 3.89 nM and 14.7 nM.
In the same order, the values of `C[C@H]1CN(c2cc(F)c(C3=CCCN(c4ccnc(C#N)n4)C3)c(F)c2NC(=O)c2c[nH]c(=O)cc2C(F)(F)F)CCN1C` [Example 114, (S)—N-(3-(1-(2-cyanopyrimidin-4-yl)-1,2,5,6-tetrahydropyridin-3-yl)-6-(3,4-dimethylpiperazin-1-yl)-2,4-difluorophenyl)-6-oxo-4-(trifluoromethyl)-1,6-dihydropyridine-3-carboxamide] are 36.6 nM, 2.42 nM and 15.9 nM.
As for `C[C@H]1CN(c2cc(F)c(C3=CCCN(c4ccnc(C#N)n4)C3)c(F)c2NC(=O)c2c[nH]c(=O)cc2C(F)F)CCN1C` [Example 113, (S)—N-(3-(1-(2-cyanopyrimidin-4-yl)-1,2,5,6-tetrahydropyridin-3-yl)-6-(3,4-dimethylpiperazin-1-yl)-2,4-difluorophenyl)-4-(difluoromethyl)-6-oxo-1,6-dihydropyridine-3-carboxamide], the EC50 with MV4-11 cells worked out at 85.9 nM. Moreover, at WDR5 [1], the Kd stood at 1.99 nM. For the same compound, on WDR5 [2], the IC50 amounted to 14.8 nM.
In the case of `C[C@H]1CN(c2cc(F)c(C3=CCN(C(=O)OC4(C)CCC4)CC3)c(F)c2NC(=O)c2c[nH]c(=O)cc2C(F)(F)F)CCN1C` [Example 93, 1-Methylcyclobutyl(S)-4-(4-(3,4-dimethylpiperazin-1-yl)-2,6-difluoro-3-(6-oxo-4-(trifluoromethyl)-1,6-dihydropyridine-3-carboxamido)phenyl)-3,6-dihydropyridine-1(2H)-carboxylate], the EC50 in the assay with MV4-11 cells amounted to 19.4 nM. Further, at WDR5 [1], the Kd was determined as 2.15 nM. Moreover, the 50% inhibitory concentration (IC50) on WDR5 [2] is 15.4 nM.
The like results for `C[C@@H]1CN(c2ncc(-c3c(F)cc(N4C[C@@H](C)N(C)[C@@H](C)C4)c(NC(=O)c4c[nH]c(=O)cc4C(F)F)c3F)cn2)C[C@@H](C)O1` [Example 116, 4-(Difluoromethyl)-N-(3-(2-((2R,6R)-2,6-dimethylmorpholino)pyrimidin-5-yl)-2,4-difluoro-6-((3S,5R)-3,4,5-trimethylpiperazin-1-yl)phenyl)-6-oxo-1,6-dihydropyridine-3-carboxamide] were, in that order, 36.5 nM, 1.12 nM and 15.2 nM.
With `C[C@H]1CN(c2cc(F)c(C3=CCN(c4ncc(F)cn4)C3)c(F)c2NC(=O)c2c[nH]c(=O)cc2C(F)(F)F)CCN1C` [Example 80, (S)—N-(6-(3,4-dimethylpiperazin-1-yl)-2,4-difluoro-3-(1-(5-fluoropyrimidin-2-yl)-2,5-dihydro-1H-pyrrol-3-yl)phenyl)-6-oxo-4-(trifluoromethyl)-1,6-dihydropyridine-3-carboxamide], the concentration for a half-maximal effect (EC50) with MV4-11 cells came to 58.3 nM. The Kd at WDR5 [1] worked out at 1.27 nM. Besides, at WDR5 [2], the IC50 was determined as 23 nM.
Turning to `C[C@H]1CN(c2cc(F)c(-c3ccc(N4CCOCC4)nc3)c(F)c2NC(=O)c2ccc(F)cc2C(F)F)CCN1C` [Example 180, (S)-2-(Difluoromethyl)-N-(6-(3,4-dimethylpiperazin-1-yl)-2,4-difluoro-3-(6-morpholinopyridin-3-yl)phenyl)-4-fluorobenzamide], in the assay with MV4-11 cells, the EC50 came out at 198 nM. At WDR5 [1], the Kd was determined as 2.51 nM. Further, on WDR5 [2], the IC50 was found to be 22.4 nM.
Turning to `C[C@@H]1CN(c2ncc(-c3c(F)cc(N4C[C@@H](C)N(C)[C@@H](C)C4)c(NC(=O)c4c[nH]c(=O)cc4C(F)(F)F)c3F)cn2)C[C@H](C)O1` [Example 8, N-(3-(2-((2S,6R)-2,6-dimethylmorpholino)pyrimidin-5-yl)-2,4-difluoro-6-((3S,5R)-3,4,5-trimethylpiperazin-1-yl)phenyl)-6-oxo-4-(trifluoromethyl)-1,6-dihydropyridine-3-carboxamide], in the assay on MV4-11 cells, the EC50 is 31 nM. At WDR5 [1], the Kd came out at 0.82 nM. The IC50 at WDR5 [2] was 21.3 nM.
The like results for `C[C@@H]1CN(c2ccc(-c3c(F)cc(N4CCN(C)[C@@H](C)C4)c(NC(=O)c4ccc(F)cc4C(F)F)c3F)cn2)CCO1` [Example 177, 2-(Difluoromethyl)-N-(6-((S)-3,4-dimethylpiperazin-1-yl)-2,4-difluoro-3-(6-((R)-2-methylmorpholino)pyridin-3-yl)phenyl)-4-fluorobenzamide] were, in that order, 101 nM, 1.72 nM and 23 nM.
For `CC(C)OC(=O)N1CCC=C(c2c(F)cc(N3CCN(C)[C@@H](C)C3)c(NC(=O)c3c[nH]c(=O)cc3C(F)F)c2F)C1` [Example 35, Isopropyl (S)-5-(3-(4-(difluoromethyl)-6-oxo-1,6-dihydropyridine-3-carboxamido)-4-(3,4-dimethylpiperazin-1-yl)-2,6-difluorophenyl)-3,6-dihydropyridine-1(2H)-carboxylate], the EC50 with MV4-11 cells was 409 nM. The Kd at WDR5 [1] came to 6.29 nM. The IC50 at WDR5 [2] stood at 29.4 nM.

One may read the EC50 as the concentration giving half of the maximal effect. As a reminder, the Kd is a measure of binding affinity in units of concentration. For orientation: IC50 means the concentration that inhibits the measured activity by half.
